According to ChEMBL document CHEMBL1132407, “Combinatorial library of serine and cysteine protease inhibitors that interact with both the S and S' binding sites” (J Med Chem, 1999):

What was measured:
Papain = target: T1, Papain (Carica papaya, UniProt P00784); assay: Inhibitory activity against papain
T1 sequence (P00784 whole entry): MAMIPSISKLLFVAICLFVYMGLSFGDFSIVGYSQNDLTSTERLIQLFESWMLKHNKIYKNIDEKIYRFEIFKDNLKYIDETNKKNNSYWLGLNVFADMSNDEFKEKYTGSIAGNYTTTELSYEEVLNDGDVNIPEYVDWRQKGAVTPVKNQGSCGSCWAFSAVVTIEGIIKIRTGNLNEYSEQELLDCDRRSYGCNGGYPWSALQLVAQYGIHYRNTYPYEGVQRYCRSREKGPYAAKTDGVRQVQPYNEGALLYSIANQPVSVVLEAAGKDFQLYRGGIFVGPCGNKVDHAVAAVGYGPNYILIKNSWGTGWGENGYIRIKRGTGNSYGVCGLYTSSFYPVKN

Plasminogen = Plasminogen (Homo sapiens, UniProt P00747); assay: Inhibitory activity against plasmin
Chain of Plasminogen (P00747 97-580 limits assumed): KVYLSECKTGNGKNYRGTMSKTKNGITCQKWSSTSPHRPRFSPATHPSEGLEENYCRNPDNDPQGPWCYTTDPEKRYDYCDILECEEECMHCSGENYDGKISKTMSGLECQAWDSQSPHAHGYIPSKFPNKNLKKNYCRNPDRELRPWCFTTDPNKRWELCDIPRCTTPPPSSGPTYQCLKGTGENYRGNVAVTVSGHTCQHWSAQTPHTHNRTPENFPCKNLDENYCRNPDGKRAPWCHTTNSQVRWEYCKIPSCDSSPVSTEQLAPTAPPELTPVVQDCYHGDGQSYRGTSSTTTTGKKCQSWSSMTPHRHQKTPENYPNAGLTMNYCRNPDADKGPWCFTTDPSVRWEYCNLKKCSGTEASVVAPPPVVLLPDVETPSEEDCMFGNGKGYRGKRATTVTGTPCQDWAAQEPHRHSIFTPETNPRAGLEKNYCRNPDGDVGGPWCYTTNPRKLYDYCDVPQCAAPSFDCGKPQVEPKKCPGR
Chain of Plasminogen (P00747 581-810 limits assumed): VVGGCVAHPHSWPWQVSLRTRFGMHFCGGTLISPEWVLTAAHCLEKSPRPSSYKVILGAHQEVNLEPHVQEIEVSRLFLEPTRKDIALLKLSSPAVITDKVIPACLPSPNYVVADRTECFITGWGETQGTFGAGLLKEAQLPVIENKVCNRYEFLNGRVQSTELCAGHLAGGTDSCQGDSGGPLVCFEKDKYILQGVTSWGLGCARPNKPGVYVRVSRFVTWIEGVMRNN

Cathepsin B = Cathepsin B (Homo sapiens, UniProt P07858); assay: Inhibitory activity against Cathepsin B

Ki (Papain)	Ki (Plasminogen)	Ki (Cathepsin B)	SMILES
490 µM	420 µM		O=C(CC[C@H]1CCC[C@@H](NC(=O)[C@H](Cc2ccccc2)NC(=O)OCc2ccccc2)C1=O)N[C@@H](Cc1c[nH]c2ccccc12)C(=O)O
870 µM	3000 µM	1100 µM	O=C(CC[C@H]1CCC[C@@H](NC(=O)[C@H](Cc2ccccc2)NC(=O)OCc2ccccc2)C1=O)N[C@@H](Cc1ccccc1)C(=O)O
	10 µM		O=C(CC[C@H]1CCC[C@@H](NC(=O)[C@H](Cc2c[nH]c3ccccc23)NC(=O)OCc2ccccc2)C1=O)N[C@@H](Cc1c[nH]c2ccccc12)C(=O)O (stereo in doubt)
380 µM	5 µM		O=C(CC[C@H]1CCC[C@@H](NC(=O)[C@H](Cc2c[nH]c3ccccc23)NC(=O)OCc2ccccc2)C1=O)N[C@@H](Cc1c[nH]c2ccccc12)C(=O)O (stereo in doubt; 15A)
250 µM	100 µM		O=C(CC[C@H]1CCC[C@@H](NC(=O)[C@H](Cc2c[nH]c3ccccc23)NC(=O)OCc2ccccc2)C1=O)N[C@@H](Cc1ccccc1)C(=O)O (stereo in doubt; 16A)
	150 µM		O=C(CC[C@H]1CCC[C@@H](NC(=O)[C@H](Cc2c[nH]c3ccccc23)NC(=O)OCc2ccccc2)C1=O)N[C@@H](Cc1ccccc1)C(=O)O (stereo in doubt; 16B)
